Key:
[1] = target: Proteinase K (Parengyodontium album, UniProt P06873); test: Stability towards proteases: Proteinase K; type: in vitro ADME; details: 75 μg of oligomer, 5 μl of protease, 37° C., 3 hours; PAGE, UV shadowing, silver staining; note: key: '+' denotes stability; no enzymic degradation
Protocol: (§1) Subsequently, the gel was analysed by UV shadowing.

[2] = tested on: Pronase E; test: Stability towards proteases: Pronase E; type: in vitro ADME; details: 75 μg of oligomer, 5 μl of protease, 37° C., 3 hours; PAGE, UV shadowing, silver staining; note: key: '+' denotes stability; no enzymic degradation
Protocol: as §1

[3] = tested on: Trypsin; test: Stability towards proteases: Trypsin; type: in vitro ADME; details: 75 μg of oligomer, 5 μl of protease, 37° C., 3 hours; PAGE, UV shadowing, silver staining; note: key: '+' denotes stability; no enzymic degradation
Protocol: as §1

[4] = target: Endoprotease LYS--C (Lysobacter enzymogenes, UniProt Q7M135); test: Stability towards proteases: Endoprotease LYS--C; type: in vitro ADME; details: 75 μg of oligomer, 5 μl of protease, 37° C., 3 hours; PAGE, UV shadowing, silver staining; note: key: '+' denotes stability; no enzymic degradation
Chain of Endoprotease LYS--C (Q7M135 whole entry): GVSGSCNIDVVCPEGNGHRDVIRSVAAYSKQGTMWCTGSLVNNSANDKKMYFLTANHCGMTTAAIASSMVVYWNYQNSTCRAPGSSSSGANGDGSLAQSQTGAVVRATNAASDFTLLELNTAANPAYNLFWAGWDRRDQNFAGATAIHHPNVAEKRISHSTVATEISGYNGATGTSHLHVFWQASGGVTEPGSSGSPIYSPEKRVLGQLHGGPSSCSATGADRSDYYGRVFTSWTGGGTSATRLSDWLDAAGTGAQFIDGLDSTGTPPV
Protocol: as §1

[5] = tested on: Protease XXI; test: Stability towards proteases: Protease XXI; type: in vitro ADME; details: 75 μg of oligomer, 5 μl of protease, 37° C., 3 hours; PAGE, UV shadowing, silver staining; note: key: '+' denotes stability; no enzymic degradation
Protocol: as §1

[6] = tested on: Protease IX; test: Stability towards proteases: Protease IX; type: in vitro ADME; details: 75 μg of oligomer, 5 μl of protease, 37° C., 3 hours; PAGE, UV shadowing, silver staining; note: key: '+' denotes stability; no enzymic degradation
Protocol: as §1

[7] = Stability towards proteases: extracts of T-lymphocyte cells; type: in vitro ADME; details: 75 μg of oligomer, 5 μl of extract, protease buffer, 37° C., 3 hours; note: key: '+' denotes stability; no enzymic degradation
Protocol: (§2) Cell extracts from T lymphocytes and blood were also employed for the stability investigations in addition to the purified, defined proteases. For this purpose, 50 ml of cell suspension were centrifuged down at 2000 rpm, taken up in 500 μl of Tris/HCl buffer, pH 7.5; 40 mM CaCl2, and lysed with 5 μl of 20% SDS. Following dialysis against 0.1 M Tris/HCl, pH 7.5; 40 mM CaCl2, and a change of buffer after 4 hours, 5 μl were employed directly in the test. Blood was lysed directly with doubly distilled H2 O and 5 μl were then employed in the test. Bovine serine albumin (BSA) and lysozyme were used as positive controls for digestion by the proteases.
as §1

[8] = Stability towards proteases: blood extract; type: in vitro ADME; details: 75 μg of oligomer, 5 μl of lysed blood, protease buffer, 37° C., 3 hours; note: key: '+' denotes stability; no enzymic degradation
Protocol: as §2, §1

[9] = target: T1, S1 nuclease (Aspergillus oryzae, UniProt P24021); test: Stability towards nucleases: S1 nuclease; type: in vitro ADME; details: 75 μg of oligomer, 5 μl of nuclease (40 units), 37° C., 3 hours; PAGE, UV shadowing; note: key: '+' denotes stability; no enzymic degradation
T1 sequence (P24021 21-287): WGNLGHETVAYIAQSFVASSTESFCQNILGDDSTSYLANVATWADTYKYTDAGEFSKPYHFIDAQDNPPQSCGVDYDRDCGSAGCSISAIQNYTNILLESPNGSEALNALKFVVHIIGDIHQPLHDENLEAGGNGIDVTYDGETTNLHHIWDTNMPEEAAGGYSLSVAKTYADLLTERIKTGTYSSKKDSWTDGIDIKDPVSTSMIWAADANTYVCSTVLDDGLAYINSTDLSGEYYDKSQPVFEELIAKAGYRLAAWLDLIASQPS
Protocol: (§3) Subsequently, the gel was analysed by UV shadowing. […] The oligomers are stable towards the nucleases and cell extracts which were tested.

[10] = tested on: Bal31 nuclease; test: Stability towards nucleases: Bal31 nuclease; type: in vitro ADME; details: 75 μg of oligomer, 5 μl of nuclease (40 units), 37° C., 3 hours; PAGE, UV shadowing; note: key: '+' denotes stability; no enzymic degradation
Protocol: as §3

[11] = Stability towards nucleases: T-lymphocyte extract; type: in vitro ADME; details: 75 μg of oligomer, nuclease buffer, 37° C., 3 hours; note: key: '+' denotes stability; no enzymic degradation
Protocol: (§4) Cell extracts from T-lymphocytes and blood were also employed for the stability investigations in addition to the purified, defined nucleases. For this purpose, 50 ml of cell suspension were centrifuged down at 2000 rpm, taken up in 500 μl of Tris/HCl buffer, pH 7.5; 40 mM CaCl2, and lysed with 5 μl of 20% SDS. Following dialysis against 0.1 M Tris/HCl, pH 7.5; 40 mM CaCl2, and a change of buffer after 4 hours, 5 μl were employed directly in the test. Blood was employed directly following lysis with doubly distilled H2 O. A 25mer oligonucleotide diester was employed as the positive control for digestion by the nucleases.
as §3

[12] = Stability towards nucleases: blood; type: in vitro ADME; details: 75 μg of oligomer, lysed blood, nuclease buffer, 37° C., 3 hours; note: key: '+' denotes stability; no enzymic degradation
Protocol: as §4, §3

[13] = Stability of nucleic acid-binding oligomers towards proteases and nucleases (overall statements); type: in vitro ADME; details: 37° C., 3 hours
Protocol: For this purpose, the nucleic acid-binding oligomers were treated-with non-specific and specific proteases, such as, for example, pronase E, proteinase K, trypsin, endoprotease Lys.C, V8 protease, protease IX and protease XXI, nucleases, such as, for example, S1 nuclease and Ba131 nuclease, phosphodiesterase, and cell extracts and organ extracts and blood serum and blood extracts which contain various nucleases and proteases. The oligomers were examined for degradation by polyacrylamide gel electrophoresis and UV shadowing on TLC plates containing UV indicator and by silver-staining the polyacrylamide gels.
as §2, with “the proteases. […]” for “the proteases.”

[14] = tested on: double-stranded plasmid DNA containing two poly-adenine sequence regions; test: Strand displacement in double-stranded plasmid DNA; details: S1 nuclease digestion at high salt concentrations
Protocol: Double-stranded, circular plasmid DNA, which is of 4880 base pairs in length and which contains two poly-adenine sequence regions having at least nine consecutive adenine nucleotides, which sequence regions are at a distance apart of 1150 base pairs, is used in the tests described here.
Subsequently, 4 μl of buffer (250 mM Na acetate, 1 M NaCl, 2.5% glycerol, 5 mM ZnCl2, pH 4.4) were added to all the samples while 1 μl of S1 nuclease from Aspergillus oryzae (from Boehringer Mannheim), having an activity of 10 U/μl, was added to each of samples 2 to 6. After having been incubated at 30° C. for 15 minutes, the samples were placed on ice, 1 μl of 0.5 M EDTA and 3 μl of loading buffer (50% glycerol, 0.25% bromophenol blue in 40 mM Tris/HCl, 20 mM sodium acetate, 1 mM EDTA, pH=7.2) were added, and, without delay, the samples were fractionated electrophoretically on 1.2% agarose gels and, after staining with ethidium bromides, the sizes of the resulting plasmid fragments on the gel were determined by comparison with a molecular weight standard (1-kb ladder, from Gibco-BRL, D-7514 Eggenstein) on a transilluminator using 254 nm UV light.

Chain of Proteinase K (P06873 106-384): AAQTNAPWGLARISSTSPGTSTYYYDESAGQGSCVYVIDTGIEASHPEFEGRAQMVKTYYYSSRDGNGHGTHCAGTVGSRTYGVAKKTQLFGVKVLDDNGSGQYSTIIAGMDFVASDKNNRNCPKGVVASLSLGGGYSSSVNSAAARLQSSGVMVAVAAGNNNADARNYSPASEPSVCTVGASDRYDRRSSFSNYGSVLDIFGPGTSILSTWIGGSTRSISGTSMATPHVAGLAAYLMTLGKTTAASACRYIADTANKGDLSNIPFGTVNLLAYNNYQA

| Substance | Stability towards Proteinase K [1] | Stability towards Pronase E [2] | Stability towards Trypsin [3] | Stability towards Endoprotease LYS--C [4] | Stability towards Protease XXI [5] | Stability towards Protease IX [6] | Stability towards extracts of T-lymphocyte cells (HUT, U 937), protease test [7] | Stability towards extract of blood, protease test [8] | Stability towards S1 nuclease [9] | Stability towards Bal31 nuclease [10] | Stability towards T-lymphocyte extract, nuclease test [11] | Stability towards blood, nuclease test [12] | Stability towards the proteases and cell extracts which were tested [13] | Binding to double-stranded DNA (strand displacement), result in words [14] |
| --- | --- | --- | --- | --- | --- | --- | --- | --- | --- | --- | --- | --- | --- | --- |
| H--(III T)8 --Ala--OH [H-(IIIT)8 -Ala--OH] | + | + | + | + | + | + | + | + | + | + | + | + | stable |  |
| H--(III T)12 --Lys--OH [H-(IIIT)12 -Lys--OH] | + | + | + | + | + | + | + | + | + | + | + | + | stable | concentration-dependent and sequence-selective binding |

From US5623049A (Bayer Aktiengesellschaft, priority 1993, dated 1997)
